Assays:
[1] = biological target: T1, BCRP (Homo sapiens, UniProt Q9UNQ0); assay: BCRP inhibition in BCRP-expressing membrane vesicles with rosuvastatin as substrate; type: biochemical; conditions: for [I]2/IC50 ratio (G-value): ritlecitinib 200 mg, cutoff = 10
T1 sequence (Q9UNQ0 1-655): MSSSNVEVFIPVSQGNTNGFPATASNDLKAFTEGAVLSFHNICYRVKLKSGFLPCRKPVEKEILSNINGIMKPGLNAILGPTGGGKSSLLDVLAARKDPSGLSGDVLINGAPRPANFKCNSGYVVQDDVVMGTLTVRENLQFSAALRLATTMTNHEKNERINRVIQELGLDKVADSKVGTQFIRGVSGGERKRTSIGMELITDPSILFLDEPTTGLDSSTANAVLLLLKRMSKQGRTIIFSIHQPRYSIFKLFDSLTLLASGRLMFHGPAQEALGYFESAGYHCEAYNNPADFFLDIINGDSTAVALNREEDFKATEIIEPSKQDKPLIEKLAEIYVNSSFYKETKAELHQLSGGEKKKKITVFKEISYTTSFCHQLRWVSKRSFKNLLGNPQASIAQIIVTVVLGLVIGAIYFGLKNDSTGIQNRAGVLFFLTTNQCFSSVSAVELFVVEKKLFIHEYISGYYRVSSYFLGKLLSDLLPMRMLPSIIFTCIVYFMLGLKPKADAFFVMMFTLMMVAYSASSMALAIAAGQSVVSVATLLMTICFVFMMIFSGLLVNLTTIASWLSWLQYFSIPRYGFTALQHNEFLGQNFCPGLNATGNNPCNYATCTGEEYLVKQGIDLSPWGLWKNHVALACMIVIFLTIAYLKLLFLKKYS
Procedure: As described previously, BCRP inhibition by ritlecitinib was measured using BCRP-expressing membrane vesicles with non-labeled rosuvastatin as substrate.
(§1) In all cases, ritlecitinib (0.018 to 1000 µM) and metabolite M2 (0.018 to 300 µM) was tested over a wide range of final concentrations dissolved in dimethyl sulfoxide (the final concentration of dimethyl sulfoxide in the assays was 1% v/v). For each transporter, the IC50 was estimated using a four-parameter logistic equation (Eq. 1) using GraphPad Prism software (GraphPad Software Inc, La Jolla, CA).1 %UptakeActivity=Bottom+(Top-Bottom)/1+10^(LogIC50-inhib*HillSlope)

[2] = human, in vivo
Procedure: This was a Phase 1, 2-period fixed-sequence, multiple-dose, open-label study of the effect of ritlecitinib on the pharmacokinetics and renal clearance of a single, oral dose of rosuvastatin in healthy participants (Fig. 1). The safety and tolerability of rosuvastatin when coadministered with ritlecitinib was also evaluated.
In Period 1 on Day 1, following an overnight fast of at least 10 h, participants received a single oral administration of rosuvastatin 10 mg tablet. Period 1 was immediately followed by Period 2 with no washout. In Period 2 (coadministration), participants received oral ritlecitinib 200 mg once daily (QD) under non-fasting conditions for 7 days. On the morning of Day 8, a single dose of rosuvastatin 10 mg tablet was administered orally within approximately 5 min after administration of a ritlecitinib 200 mg dose under fasting conditions. On Days 9 and 10, participants continued to receive oral ritlecitinib 200 mg QD under non-fasting conditions.

[3] = biological target: T2, OATP1B3 (Homo sapiens, UniProt Q9NPD5); assay: OATP1B3-mediated CP-I uptake inhibition in transfected HEK293 cells; type: cell-based
T2 construct: expressed in transfected cells; host or cells: HEK293
T2 sequence (Q9NPD5 1-702): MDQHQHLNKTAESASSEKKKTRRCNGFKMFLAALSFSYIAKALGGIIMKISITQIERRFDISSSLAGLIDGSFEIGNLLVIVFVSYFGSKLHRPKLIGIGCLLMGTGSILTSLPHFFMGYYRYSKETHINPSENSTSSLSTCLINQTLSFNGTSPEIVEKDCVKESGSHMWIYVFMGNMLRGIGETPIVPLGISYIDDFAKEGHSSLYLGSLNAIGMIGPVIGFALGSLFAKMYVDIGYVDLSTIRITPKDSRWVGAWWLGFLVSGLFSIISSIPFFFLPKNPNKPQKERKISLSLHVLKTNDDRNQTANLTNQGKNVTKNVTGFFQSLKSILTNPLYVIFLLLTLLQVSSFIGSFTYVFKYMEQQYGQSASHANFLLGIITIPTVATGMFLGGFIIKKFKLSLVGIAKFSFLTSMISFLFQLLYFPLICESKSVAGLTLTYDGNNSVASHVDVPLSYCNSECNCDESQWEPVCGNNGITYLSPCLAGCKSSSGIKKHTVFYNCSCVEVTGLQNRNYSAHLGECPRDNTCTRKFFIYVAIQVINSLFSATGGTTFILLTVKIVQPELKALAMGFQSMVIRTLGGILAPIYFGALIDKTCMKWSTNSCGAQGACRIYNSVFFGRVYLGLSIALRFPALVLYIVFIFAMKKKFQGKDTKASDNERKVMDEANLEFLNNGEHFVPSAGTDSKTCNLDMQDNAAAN
Procedure: Sources of human embryonic kidney (HEK) 293 cells expressing individual transfected human solute carriers (SLC), test substrates, and cell culture reagents, as well as detailed cell culture methods, incubations, and sample processing, have been described previously. SLC included hepatic OATP1B1, OATP1B3, and renal OAT1 and OAT3. […] Likewise, the uptake of non-labeled rosuvastatin (Biosynth, San Diego, CA) at 0.3—0.5 µM was determined for OATP1B1 and OATP1B3 at 1—3 min, and CP-I (Frontier Specialty Chemicals, Logan, UT) at 0.1 µM was determined for OATP1B1 and OATP1B3 at 10 min [14].
as §1
Uptake of CP-I was determined by analysis of the in vitro assay samples using an optimized LC-high resolution mass spectrometry (HRMS) method. In brief, dried samples were reconstituted in 150 µL of 0.1% formic acid and analyzed by LC-HRMS. Analyte separation and detection was achieved using a Shimadzu Nexera high performance LC system (Shimazdu Scientific, MA, USA) coupled to a Sciex API-6600 Q-TOF (time of flight) mass spectrometer with a Turbo IonDrive source (Sciex Corporation, MA, USA). Chromatographic separation was achieved using a Waters Acquity BEH C18 1.7µ 2.1 mm x 100 mm column and a binary mobile phase system consisting of 0.1% v/v formic acid and 0.1% v/v formic acid in acetonitrile, as mobile phase A and B, respectively. The column temperature was held at 60 °C and the flow rate was 0.55 mL/minute. The gradient program had initial conditions of 5% B which was held for 0.9 min, followed by a linear ramp to 95% B over 5.1 min, a hold for 1.0 min, and a return to starting conditions over 0.1 min with re-equilibration for 0.9 min (total run time of 8.0 min). Analyte detection was achieved using an API-6600 Q T-OF mass spectrometer with electrospray ionization (ESI). The mass spectrometer was operated in both TOF-MS and TOF-MS/MS mode with data collected over a 60 to 670 dalton mass range. TOF-MS/MS data were collected in the high-resolution mode. Quantification of CP-I levels was assessed using targeted TOF-MS/MS data with accumulation times of 150 and 35 ms, respectively, for CP-I and the internal standard (ISTD) verapamil. Data were processed using the MultiQuant software package using the targeted mass-to-charge transitions of 328.1 to 268.1201 ± 0.02 daltons and 238.1094 ± 0.02 daltons (summed ions) for CP-I, and 455.2 to 165.0907 ± 0.02 daltons for the ISTD (verapamil), to generate analyte/ISTD area ratios.

[4] = test system: CYP1A2; conditions: cited from earlier work

Triggers Drug Interaction Cutoff ([1]; [I]2/IC50 cutoff = 10): Yes | IC50 ([1]; intestinal BCRP, RSV 0.2 µM as substrate, membrane vesicles, mean ± SD, n = 3): 27 ± 2 µM | [I]2/IC50 ratio (G-value) [1]: 104 | [I]2/IC50 ratio (G-value) ([1]; listed as ritlecitinib): ~ 100 | Triggers Drug Interaction Cutoff ([3]; OATP1B3 (CP-I)): No | R-value ([3]; OATP1B3 (CP-I), 1 + (Imax,inlet,u/IC50), cutoff 1.1 (FDA), 1.04 (EMA)): < 1.03 | Fraction Inhibited ([3]; OATP1B3 (CP-I), Imax,inlet,u/(Imax,inlet,u + IC50) (Eq. 1)): < 0.03 | IC50 ([3]; hepatic OATP1B3, CP-I 0.1 µM as substrate, 10 min, HEK293): > 1 mM | inhibition at 10 min, 1000 µM ([3]; human, HEK293 cells transfected with OATP1B3, probe coproporphyrin I (CP-I), 0.1 µM, OATP1B3 (CP-I), 1000 µM, read-out: % inhibition at the highest concentration tested): 23%
Structure (SMILES): C=CC(=O)N1C[C@H](Nc2ncnc3[nH]ccc23)CC[C@@H]1C [Ritlecitinib, ritlecitinib]
serious AEs, severe AEs, dose reductions or discontinuations due to AEs [2]: no serious adverse events | inhibition of CYP1A2 ([4]; classification in words): moderate inhibitor | contribution of CYP1A2 pathway to metabolism of ritlecitinib ([4]; ref data not published): < 25%

— PMC10733197, “Utilization of Rosuvastatin and Endogenous Biomarkers in Evaluating the Impact of Ritlecitinib on BCRP, OATP1B1, and OAT3 Transporter Activity” (Pharmaceutical Research, 2023)
